Measurements as given in US11566212B2, “Integrated microfluidic system for culturing and testing” (priority 2016, dated 2023).
Like-named read-outs stand apart in the source and are kept apart here.

What was measured:
[1] = not given; remark: listed apart in the source
[2] = Diffusion chips, silicone membrane soaked in isopropyl myristate
[3] = Franz cells, silicone membrane soaked in isopropyl myristate

## Cn1c(=O)c2c(ncn2C)n(C)c1=O [caffeine]
24 h
  Steady state flux: 13 μg/cm^2 h
[2]
  Dm (diffusion coefficient): 1.8 10^−3 cm^2/h
  tlag (lag time): 0.37 h
[1]; 24 h
  Steady state flux: 13 μg/cm^2 h
[1]; [3]
  Dm (diffusion coefficient): 1.3 10^−3 cm^2/h
  tlag (lag time): 0.52 h
